Experiments:
human TYRO3 (455-end) = target: T1, human TYRO3 (455-end) (Homo sapiens, UniProt Q06418); experiment: HTRF kinase activity biochemical assay, TYRO3; details: 10 μM ATP, 30 minutes pre-incubation; read-out: HTRF TYRO IC50
T1 construct: TYRO3 (455-end); purchased SignalChem, Canada
T1 sequence (Q06418 455-890 limits assumed): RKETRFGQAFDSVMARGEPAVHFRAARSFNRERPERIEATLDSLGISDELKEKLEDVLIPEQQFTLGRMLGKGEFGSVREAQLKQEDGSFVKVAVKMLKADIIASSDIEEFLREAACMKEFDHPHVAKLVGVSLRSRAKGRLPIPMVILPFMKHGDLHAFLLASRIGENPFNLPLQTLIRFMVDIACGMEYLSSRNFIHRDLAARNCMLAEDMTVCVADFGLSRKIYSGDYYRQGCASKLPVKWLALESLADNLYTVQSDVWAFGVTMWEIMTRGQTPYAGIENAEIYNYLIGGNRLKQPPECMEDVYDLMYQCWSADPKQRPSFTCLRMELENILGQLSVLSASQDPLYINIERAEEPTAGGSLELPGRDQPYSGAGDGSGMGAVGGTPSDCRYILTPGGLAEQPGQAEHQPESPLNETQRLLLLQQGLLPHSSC

human MER (528-end) = target: T2, human MER (528-end) (Homo sapiens, UniProt Q12866); experiment: HTRF kinase activity biochemical assay, MER; details: 10 μM ATP, 30 minutes pre-incubation; read-out: HTRF MERTK IC50
T2 construct: human MER (528-end); purchased Camnabio, Japan
T2 sequence (Q12866 528-999 limits assumed): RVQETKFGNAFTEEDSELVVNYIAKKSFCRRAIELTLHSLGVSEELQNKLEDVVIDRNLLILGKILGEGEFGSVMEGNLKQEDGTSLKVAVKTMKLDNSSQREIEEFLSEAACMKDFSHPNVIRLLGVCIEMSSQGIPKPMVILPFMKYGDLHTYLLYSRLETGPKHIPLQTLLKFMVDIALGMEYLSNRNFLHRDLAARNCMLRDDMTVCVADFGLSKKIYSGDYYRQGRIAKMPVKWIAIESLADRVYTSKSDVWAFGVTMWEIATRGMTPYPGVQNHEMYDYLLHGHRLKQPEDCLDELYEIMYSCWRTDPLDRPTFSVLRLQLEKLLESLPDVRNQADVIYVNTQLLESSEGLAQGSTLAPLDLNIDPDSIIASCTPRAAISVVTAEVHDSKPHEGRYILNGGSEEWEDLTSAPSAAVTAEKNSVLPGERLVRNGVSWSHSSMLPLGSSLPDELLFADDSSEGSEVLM

human AXL (473-end) = target: T3, human AXL (473-end) (Homo sapiens, UniProt P30530); experiment: HTRF kinase activity biochemical assay, AXL; details: 10 μM ATP, 30 minutes pre-incubation
T3 construct: human AXL (473-end); purchased SignalChem, Canada
T3 sequence (P30530 473-894 limits assumed): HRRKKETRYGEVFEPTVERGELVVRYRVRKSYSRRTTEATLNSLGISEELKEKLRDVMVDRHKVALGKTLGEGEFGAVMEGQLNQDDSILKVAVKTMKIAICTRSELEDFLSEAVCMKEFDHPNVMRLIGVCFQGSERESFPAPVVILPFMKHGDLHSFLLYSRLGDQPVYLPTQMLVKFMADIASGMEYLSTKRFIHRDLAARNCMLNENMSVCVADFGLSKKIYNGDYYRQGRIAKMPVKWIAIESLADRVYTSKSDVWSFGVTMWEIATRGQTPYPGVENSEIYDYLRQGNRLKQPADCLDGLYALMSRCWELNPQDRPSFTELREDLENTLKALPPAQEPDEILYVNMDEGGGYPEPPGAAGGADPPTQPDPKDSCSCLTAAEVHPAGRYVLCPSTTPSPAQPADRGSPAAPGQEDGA

SMILES	IC50 (human TYRO3 (455-end)) [nM]	IC50 (human MER (528-end)) [nM]	IC50 (human AXL (473-end)) [nM]
Cc1c(-c2cnc(N)c(C(=O)N[C@H]3COC[C@@H]3OCc3ccc(-c4ccc5c(c4)C(C)(C)CN5C4CCN(CCO)CC4)cc3)c2)cnn1C [Example 47, 2-amino-5-(1,5-dimethyl-1H-pyrazol-4-yl)-N-{(3S,4R)-4-[(4-{1-[1-(2-hydroxyethyl)piperidin-4-yl]-3,3-dimethyl-2,3-dihydro-1H-indol-5-yl}phenyl)methoxy]oxolan-3-yl}pyridine-3-carboxamide]	10 to 100	< 10	< 10
CN1CCN([C@H]2CCCc3cc(-c4ccc(CO[C@H]5CCC[C@@H]5NC(=O)c5cc(-c6cccnc6F)cnc5N)cc4)ccc32)CC1 [Example 163, 6-amino-2′-fluoro-N-[(1S,2S)-2-({4-[(5S)-5-(4-methylpiperazin-1-yl)-5,6,7,8-tetrahydronaphthalen-2-yl]phenyl}methoxy)cyclopentyl][3,3′-bipyridine]-5-carboxamide]	10 to 100	< 10	< 10
Cc1cn(C)c2ccc(-c3ccc(CO[C@H]4CCC[C@@H]4NC(=O)c4cc(-c5cnn(C)c5)cnc4N)cc3)cc12 [Example 54, 2-amino-N-[(1S,2S)-2-{[4-(1,3-dimethyl-1H-indol-5-yl)phenyl]methoxy}cyclopentyl]-5-(1-methyl-1H-pyrazol-4-yl)pyridine-3-carboxamide]	> 1000	10 to 100	10 to 100
Cn1cc(-c2cnc(N)c(C(=O)N[C@H]3CCC[C@@H]3OCc3ccc(-c4cnc5c(c4)C(C)(C)CN5C4CCN(CCO)CC4)cc3)c2)cn1 [Example 77, 2-amino-N-{(1S,2S)-2-[(4-{1-[1-(2-hydroxyethyl)piperidin-4-yl]-3,3-dimethyl-2,3-dihydro-1H-pyrrolo[2,3-b]pyridin-5-yl}phenyl)methoxy]cyclopentyl}-5-(1-methyl-1H-pyrazol-4-yl)pyridine-3-carboxamide]	10 to 100	< 10	< 10
Cn1cc(-c2cnc(N)c(C(=O)N[C@H]3CCC[C@@H]3OCc3ccc(-c4ccc5c(c4)CCC5N4CCN(CC(O)CO)CC4)cc3)c2)cn1 (stereo partly drawn) [Example 81, 2-amino-N-{(1S,2S)-2-[(4-{1-[4-(2,3-dihydroxypropyl)piperazin-1-yl]-2,3-dihydro-1H-inden-5-yl}phenyl)methoxy]cyclopentyl}-5-(1-methyl-1H-pyrazol-4-yl)pyridine-3-carboxamide]	10 to 100	< 10	< 10
Nc1ncc(-c2cccnc2F)cc1C(=O)N[C@H]1CCC[C@@H]1OCc1ccc(-c2ccc3c(c2)CCCC3N2CCN(CCO)CC2)cc1 (stereo partly drawn) [Example 149, 6-amino-2′-fluoro-N-{(1S,2S)-2-[(4-{5-[4-(2-hydroxyethyl)piperazin-1-yl]-5,6,7,8-tetrahydronaphthalen-2-yl}phenyl)methoxy]cyclopentyl}[3,3′-bipyridine]-5-carboxamide]	10 to 100	< 10	< 10
Cn1cc(-c2cnc(N)c(C(=O)N[C@H]3CCC[C@@H]3OCc3ccc(-c4ccc5c(ccn5CCO)c4)cc3)c2)cn1 [Example 57, 2-amino-N-[(1S,2S)-2-({4-[1-(2-hydroxyethyl)-1H-indol-5-yl]phenyl}methoxy)cyclopentyl]-5-(1-methyl-1H-pyrazol-4-yl)pyridine-3-carboxamide]	> 1000	< 10	10 to 100
Nc1ncc(C(F)(F)F)cc1C(=O)N[C@H]1COC[C@@H]1OCc1ccc(-c2ccc3c(ccn3C3CCN(CCO)CC3)c2)cc1 [Example 24, 2-amino-N-{(3S,4R)-4-[(4-{1-[1-(2-hydroxyethyl)piperidin-4-yl]-1H-indol-5-yl}phenyl)methoxy]oxolan-3-yl}-5-(trifluoromethyl)pyridine-3-carboxamide]	> 1000	10 to 100	100 to 1000
CC1(C)CN(C2CCN(CCO)CC2)c2ccc(-c3ccc(CO[C@H]4COC[C@@H]4NC(=O)c4cc(-c5cncc(F)c5)cnc4N)cc3)cc21 [Example 44, 6-amino-5′-fluoro-N-{(3S,4R)-4-[(4-{1-[1-(2-hydroxyethyl)piperidin-4-yl]-3,3-dimethyl-2,3-dihydro-1H-indol-5-yl}phenyl)methoxy]oxolan-3-yl}[3,3′-bipyridine]-5-carboxamide]	100 to 1000	< 10	100 to 1000
Nc1ncc(-c2ccccn2)cc1C(=O)N[C@H]1CCC[C@@H]1OCc1ccc(-c2ccc3c(c2)CC[C@@H]3N2CCN(CCO)CC2)cc1 [Example 177, 6′-amino-N-{(1S,2S)-2-[(4-{(1S)-1-[4-(2-hydroxyethyl)piperazin-1-yl]-2,3-dihydro-1H-inden-5-yl}phenyl)methoxy]cyclopentyl}[2,3′-bipyridine]-5′-carboxamide]	10 to 100	< 10	< 10
CC1(C)CN(C2CCN(CCO)CC2)c2ccc(-c3ccc(CO[C@H]4COC[C@@H]4NC(=O)c4cc(-c5ccc(F)nc5)cnc4N)cc3)cc21 [Example 35, 6-amino-6′-fluoro-N-{(3S,4R)-4-[(4-{1-[1-(2-hydroxyethyl)piperidin-4-yl]-3,3-dimethyl-2,3-dihydro-1H-indol-5-yl}phenyl)methoxy]oxolan-3-yl}[3,3′-bipyridine]-5-carboxamide]	100 to 1000	< 10	10 to 100
Cn1cc(-c2cnc(N)c(C(=O)N[C@H]3CCC[C@@H]3OCc3ccc(-c4ccc5c(c4)C4(CCOC4)CN5C4CCN(CCO)CC4)cc3)c2)cn1 (stereo partly drawn) [Example 43, 2-amino-N-{(1S,2S)-2-[(4-{1-[1-(2-hydroxyethyl)piperidin-4-yl]-1,2-dihydrospiro[indole-3,3′-oxolan]-5-yl}phenyl)methoxy]cyclopentyl}-5-(1-methyl-1H-pyrazol-4-yl)pyridine-3-carboxamide]	100 to 1000	< 10	100 to 1000
CC1(C)C[C@@H](N2CCN(CCO)CC2)c2ccc(-c3ccc(CO[C@H]4CCC[C@@H]4NC(=O)c4cc(-c5ccc(F)nc5)cnc4N)cc3)cc21 [Example 97, 6-amino-6′-fluoro-N-{(1S,2S)-2-[(4-{(1R)-1-[4-(2-hydroxyethyl)piperazin-1-yl]-3,3-dimethyl-2,3-dihydro-1H-inden-5-yl}phenyl)methoxy]cyclopentyl}[3,3′-bipyridine]-5-carboxamide]	> 1000	100 to 1000	100 to 1000
CN1CCN([C@H]2CCc3cc(-c4ccc(CO[C@H]5CCC[C@@H]5NC(=O)c5cc(-c6ccc(C#N)nc6)cnc5N)cc4)ccc32)CC1 [Example 154, 6-amino-6′-cyano-N-[(1S,2S)-2-({4-[(1S)-1-(4-methylpiperazin-1-yl)-2,3-dihydro-1H-inden-5-yl]phenyl}methoxy)cyclopentyl][3,3′-bipyridine]-5-carboxamide]	100 to 1000	< 10	< 10
Cn1cc(-c2cnc(N)c(C(=O)N[C@H]3CCC[C@@H]3OCc3ccc(-c4ccc5c(ccn5CCN)c4)cc3)c2)cn1 [Example 67, 2-amino-N-[(1S,2S)-2-({4-[1-(2-aminoethyl)-1H-indol-5-yl]phenyl}methoxy)cyclopentyl]-5-(1-methyl-1H-pyrazol-4-yl)pyridine-3-carboxamide]	100 to 1000	< 10	< 10
Nc1ncc(-c2ccns2)cc1C(=O)N[C@H]1CCC[C@@H]1OCc1ccc(-c2ccc3c(c2)CC[C@@H]3N2CCN(CCO)CC2)cc1 [Example 174, 2-amino-N-{(1S,2S)-2-[(4-{(1S)-1-[4-(2-hydroxyethyl)piperazin-1-yl]-2,3-dihydro-1H-inden-5-yl}phenyl)methoxy]cyclopentyl}-5-(1,2-thiazol-5-yl)pyridine-3-carboxamide]	10 to 100	< 10	< 10
